Experiment [1] deals with T1, Polyunsaturated fatty acid 5-lipoxygenase (Mus musculus, UniProt P48999).
T1 sequence (P48999 whole entry): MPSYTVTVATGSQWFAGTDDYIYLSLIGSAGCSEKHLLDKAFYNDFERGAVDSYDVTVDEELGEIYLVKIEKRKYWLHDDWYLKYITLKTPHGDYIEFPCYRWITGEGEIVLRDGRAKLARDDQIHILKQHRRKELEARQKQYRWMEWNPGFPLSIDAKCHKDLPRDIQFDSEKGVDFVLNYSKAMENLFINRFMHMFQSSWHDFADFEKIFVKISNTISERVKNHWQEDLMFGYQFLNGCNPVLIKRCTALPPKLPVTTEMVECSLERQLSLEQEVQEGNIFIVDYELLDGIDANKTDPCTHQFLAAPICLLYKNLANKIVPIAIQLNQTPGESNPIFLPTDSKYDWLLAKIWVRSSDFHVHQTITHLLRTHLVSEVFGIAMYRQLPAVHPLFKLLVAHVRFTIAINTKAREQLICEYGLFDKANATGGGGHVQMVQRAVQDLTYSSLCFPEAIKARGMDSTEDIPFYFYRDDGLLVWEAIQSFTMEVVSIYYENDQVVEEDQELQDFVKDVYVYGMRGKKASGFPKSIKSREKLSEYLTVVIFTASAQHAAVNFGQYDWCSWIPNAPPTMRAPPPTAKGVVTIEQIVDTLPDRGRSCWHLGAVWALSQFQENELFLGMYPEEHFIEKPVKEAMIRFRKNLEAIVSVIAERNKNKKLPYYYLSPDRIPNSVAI
Nature of the experiment: Inhibitory activity against murine […].

The target of experiment [2] is T2, Prostaglandin G/H synthase 1 (Mus musculus, UniProt P22437).
T2 sequence (P22437 whole entry): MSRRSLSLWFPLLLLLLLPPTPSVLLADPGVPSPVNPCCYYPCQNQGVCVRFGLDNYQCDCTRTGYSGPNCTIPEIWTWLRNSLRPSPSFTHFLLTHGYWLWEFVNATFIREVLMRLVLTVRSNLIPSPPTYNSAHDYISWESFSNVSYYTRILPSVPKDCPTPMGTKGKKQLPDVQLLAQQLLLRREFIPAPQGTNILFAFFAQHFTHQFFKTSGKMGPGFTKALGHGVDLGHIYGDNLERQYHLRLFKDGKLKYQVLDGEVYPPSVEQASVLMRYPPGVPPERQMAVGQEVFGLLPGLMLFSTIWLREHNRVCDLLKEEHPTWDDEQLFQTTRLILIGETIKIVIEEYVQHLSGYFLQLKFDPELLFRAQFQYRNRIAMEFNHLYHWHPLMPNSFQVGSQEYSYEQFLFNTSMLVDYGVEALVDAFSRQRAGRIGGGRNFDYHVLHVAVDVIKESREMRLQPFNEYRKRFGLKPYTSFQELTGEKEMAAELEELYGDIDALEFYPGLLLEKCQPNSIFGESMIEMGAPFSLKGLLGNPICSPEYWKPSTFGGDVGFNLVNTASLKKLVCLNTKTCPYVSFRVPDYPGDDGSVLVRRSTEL
Nature of the experiment: Inhibitory activity against murine prostaglandin G/H synthase 1.

Experiment [3] has as its target T3, Prostaglandin G/H synthase 2 (Mus musculus, UniProt Q05769).
T3 sequence (Q05769 whole entry): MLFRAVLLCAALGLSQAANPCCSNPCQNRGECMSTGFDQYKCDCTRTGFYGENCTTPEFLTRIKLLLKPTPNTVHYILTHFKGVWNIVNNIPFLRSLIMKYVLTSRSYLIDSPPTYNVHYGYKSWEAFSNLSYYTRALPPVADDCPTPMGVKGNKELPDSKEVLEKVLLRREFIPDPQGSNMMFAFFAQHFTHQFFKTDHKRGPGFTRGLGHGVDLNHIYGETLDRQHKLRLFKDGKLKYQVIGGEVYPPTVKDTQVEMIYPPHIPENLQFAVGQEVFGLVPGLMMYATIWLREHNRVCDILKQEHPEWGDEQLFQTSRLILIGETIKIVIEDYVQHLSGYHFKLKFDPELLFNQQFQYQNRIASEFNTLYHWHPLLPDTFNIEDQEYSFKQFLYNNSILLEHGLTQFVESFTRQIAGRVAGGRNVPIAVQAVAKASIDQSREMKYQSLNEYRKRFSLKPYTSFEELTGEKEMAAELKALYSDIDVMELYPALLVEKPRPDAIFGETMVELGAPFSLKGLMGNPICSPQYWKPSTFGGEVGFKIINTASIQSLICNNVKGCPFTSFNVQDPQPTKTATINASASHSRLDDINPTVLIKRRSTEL
Description: Inhibitory activity against murine Prostaglandin G/H synthase 2.

For experiment [4], the target named is T2, Prostaglandin G/H synthase 1. Description: Inhibitory activity against Prostaglandin G/H synthase 1 in mice.
Experiment [5] concerns the target T1, Polyunsaturated fatty acid 5-lipoxygenase. Description: Inhibitory activity against […] in mice.
Experiment [6] addresses T3, Prostaglandin G/H synthase 2. Description: Inhibitory activity against cyclooxygenase-2 in micc.

As a reminder, the IC50 is the concentration that inhibits the measured activity by half. As for `O=C(/C=C/c1ccccc1)c1ccccn1`, the values for the IC50 in experiment [1], in experiment [2] and in experiment [3] were 8.13 µM, 32.5 µM and 28.7 µM, respectively.

On to `O=C(/C=C/c1ccco1)c1cccnc1`, for which the half-maximal inhibitory concentration (IC50) turned out to be 12 µM in experiment [1], 59.7 µM in experiment [4] and 12 µM in experiment [3].

Take `O=C(/C=C/c1ccsc1)c1cccs1`: the IC50 is 5.9 µM in experiment [1], 59.9 µM in experiment [2] and 26.7 µM in experiment [3].

As for `O=C(/C=C/c1ccco1)c1ccco1`, the figures for the IC50 in experiment [1], in experiment [2] and in experiment [3] were 12.8 µM, 80.7 µM and 29 µM, respectively.

As for `O=C(/C=C/c1cccs1)c1ccccc1`, the 50% inhibitory concentration (IC50) was determined as 9.5 µM in experiment [1], 46.2 µM in experiment [2] and 9.02 µM in experiment [3].

For the compound `O=C(/C=C/c1ccoc1)c1cccnc1`, the IC50 was found to be 13.4 µM in experiment [1], 21 µM in experiment [2] and 7.92 µM in experiment [3].

`O=C(/C=C/c1ccco1)c1ccccn1`: the results for the IC50 in experiment [1], in experiment [2] and in experiment [3] were 13.5 µM, 23.6 µM and 7.44 µM, respectively.

Regarding `O=C(/C=C/c1ccsc1)c1cccnc1`, the values for the IC50 in experiment [5], in experiment [2] and in experiment [3] were 10 µM, 13 µM and 18.4 µM, respectively.

In the case of `O=C(/C=C/c1ccoc1)c1ccccn1`, the IC50 was determined as 13.8 µM in experiment [1], 23.6 µM in experiment [2] and 12 µM in experiment [6].

For the compound `O=C(/C=C/c1ccccn1)c1ccco1`, the IC50 came to 0.37 µM in experiment [1], 65.3 µM in experiment [2] and 1.89 µM in experiment [3].

As to `Cc1ccsc1/C=C/C(=O)c1ccccn1`, the results for the IC50 in experiment [1], in experiment [2] and in experiment [3] were 6.51 µM, 40.1 µM and 23.4 µM, respectively.

As for `O=C(/C=C/c1ccco1)c1ccc(Cl)s1`, the figures for the IC50 in experiment [1], in experiment [2] and in experiment [3] were 7.52 µM, 57.4 µM and 14.1 µM, respectively.

With `O=C(/C=C/c1ccsc1)c1ccccn1`, the values for the IC50 in experiment [1], in experiment [2] and in experiment [3] were 7.6 µM, 13 µM and 5.22 µM, respectively.

In the case of `O=C(/C=C/c1ccco1)c1cccs1`, the IC50 turned out to be 14 µM in experiment [1], 60.7 µM in experiment [2] and 13.7 µM in experiment [3].

Turning to `O=C(/C=C/c1cccs1)c1cccs1`, the figures for the IC50 in experiment [1], in experiment [2] and in experiment [3] were 4.8 µM, 9.01 µM and 3.4 µM, respectively.

As for `O=C(/C=C/c1ccccc1)c1ccccc1` [CHALCONE], the IC50 in experiment [1] amounted to 12.2 µM; in experiment [2], 22.1 µM; in experiment [3], 11.2 µM.

Regarding `CC1=C(C)C(=O)C(CCCCC#CCCCC#CCO)=C(C)C1=O` [DOCEBENONE], the IC50 in experiment [1] came to 0.032 µM.

In turn, `CS(=O)(=O)Nc1ccc([N+](=O)[O-])cc1OC1CCCCC1` [NS-398] yielded an IC50 in experiment [2] of 1.67 µM.

Source of the values: ChEMBL document CHEMBL1146736, “Simple aromatic compounds containing propenone moiety show considerable dual COX/5-LOX inhibitory activities” (Bioorg Med Chem Lett, 2004).
